The source of these data is ChEMBL document CHEMBL1141740, “Studies on the Synthesis of Elegan-Type Linear Diterpenes: The Efficient Total Syntheses of Eleganolone, Eleganolone Acetate, Elegandiol, Eleganonal, and Epoxyeleganolone” (J Nat Prod, 1998).

Holding throughout (assay type): functional, tissue-based
Common to all, as to conditions: Cavia porcellus

In assay [1] the test system is Ileum. Put plainly: Relaxation activity in guinea pig ileum assessed as inhibition of acetylcholine-induced muscle contractions.
Assay [2] deals with Ileum. As to the kind of experiment: Relaxation activity in guinea pig ileum assessed as inhibition of histamine-induced muscle contractions.
For assay [3], the system named is Ileum. As to the kind of experiment: Relaxation activity in guinea pig ileum assessed as relaxation of KCl-induced muscle contractions.
Assay [4] relates to Ileum. Put plainly: Relaxation activity in guinea pig ileum assessed as relaxation of BaCl2-induced muscle contractions.

With `CC(C)=CC(=O)C/C(C)=C/CC/C(C)=C/CC/C(C)=C/CO` [ELEGANOLONE], the IC50 was 25.1 µM with Ileum [1], 14.5 µM in the assay on Ileum [2], 18.6 µM with Ileum [3] and 45.7 µM with Ileum [4]. Besides, the Activity entry with Ileum [3] and with Ileum [4] was “Dose-dependent effect” each time.

As to `CC(=O)OC/C=C(\C)CC/C=C(\C)CC/C=C(\C)CC(=O)C=C(C)C` [ELEGANOLONE ACETATE], the half-maximal inhibitory concentration (IC50) in the assay with Ileum [1] is 19.5 µM; in the assay with Ileum [2], 6.61 µM; with Ileum [3] it was 33.9 µM; in the assay with Ileum [4], 45.7 µM. The Activity result in the assay on Ileum [3] and with Ileum [4] was “Dose-dependent effect” throughout.
